The target in assay [1] is Isoleucine--tRNA ligase (Escherichia coli) (UniProt P00956). Briefly: Inhibition of Escherichia coli isoleucyl-tRNA synthetase.
The target of assay [2] is Alanine--tRNA ligase (Escherichia coli) (UniProt P00957). In words: Compound tested for the inhibition of Escherichia coli Alanine-tRNA synthetase.
In assay [3] the target is Leucine--tRNA ligase (Escherichia coli) (UniProt P07813). Briefly: Compound tested for the inhibition of Escherichia coli Leucyl-tRNA synthetase.
Chain of Leucine--tRNA ligase (Escherichia coli) (P07813 whole entry, looked up): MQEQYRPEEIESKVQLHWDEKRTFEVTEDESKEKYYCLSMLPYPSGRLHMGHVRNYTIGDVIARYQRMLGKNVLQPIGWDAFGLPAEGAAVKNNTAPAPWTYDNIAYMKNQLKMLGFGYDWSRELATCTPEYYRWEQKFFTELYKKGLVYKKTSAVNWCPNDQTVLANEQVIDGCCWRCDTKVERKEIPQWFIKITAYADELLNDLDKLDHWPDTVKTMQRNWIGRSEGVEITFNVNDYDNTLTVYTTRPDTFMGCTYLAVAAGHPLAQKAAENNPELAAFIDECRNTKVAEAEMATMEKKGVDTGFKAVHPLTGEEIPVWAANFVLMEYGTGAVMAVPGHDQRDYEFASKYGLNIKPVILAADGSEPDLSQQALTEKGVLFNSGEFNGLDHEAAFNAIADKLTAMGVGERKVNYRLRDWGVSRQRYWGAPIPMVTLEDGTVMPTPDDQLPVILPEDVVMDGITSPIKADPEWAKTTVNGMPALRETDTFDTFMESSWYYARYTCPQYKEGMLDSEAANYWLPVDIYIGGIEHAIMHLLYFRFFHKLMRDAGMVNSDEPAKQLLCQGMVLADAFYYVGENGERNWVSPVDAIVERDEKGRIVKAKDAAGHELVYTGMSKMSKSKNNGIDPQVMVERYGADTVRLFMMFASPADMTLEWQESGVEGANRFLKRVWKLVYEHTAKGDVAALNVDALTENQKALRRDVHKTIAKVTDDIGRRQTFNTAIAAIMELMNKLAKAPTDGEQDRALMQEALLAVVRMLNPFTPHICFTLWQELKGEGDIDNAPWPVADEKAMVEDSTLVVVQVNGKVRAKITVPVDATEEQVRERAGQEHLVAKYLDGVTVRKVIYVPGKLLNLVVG

Data on 15 molecules can be found in BindingDB's records for doi:10.1016/s0960-894x(98)00738-0 (Cubist Pharmaceuticals, 1999).

Chain of Isoleucine--tRNA ligase (Escherichia coli) (P00956 whole entry, looked up): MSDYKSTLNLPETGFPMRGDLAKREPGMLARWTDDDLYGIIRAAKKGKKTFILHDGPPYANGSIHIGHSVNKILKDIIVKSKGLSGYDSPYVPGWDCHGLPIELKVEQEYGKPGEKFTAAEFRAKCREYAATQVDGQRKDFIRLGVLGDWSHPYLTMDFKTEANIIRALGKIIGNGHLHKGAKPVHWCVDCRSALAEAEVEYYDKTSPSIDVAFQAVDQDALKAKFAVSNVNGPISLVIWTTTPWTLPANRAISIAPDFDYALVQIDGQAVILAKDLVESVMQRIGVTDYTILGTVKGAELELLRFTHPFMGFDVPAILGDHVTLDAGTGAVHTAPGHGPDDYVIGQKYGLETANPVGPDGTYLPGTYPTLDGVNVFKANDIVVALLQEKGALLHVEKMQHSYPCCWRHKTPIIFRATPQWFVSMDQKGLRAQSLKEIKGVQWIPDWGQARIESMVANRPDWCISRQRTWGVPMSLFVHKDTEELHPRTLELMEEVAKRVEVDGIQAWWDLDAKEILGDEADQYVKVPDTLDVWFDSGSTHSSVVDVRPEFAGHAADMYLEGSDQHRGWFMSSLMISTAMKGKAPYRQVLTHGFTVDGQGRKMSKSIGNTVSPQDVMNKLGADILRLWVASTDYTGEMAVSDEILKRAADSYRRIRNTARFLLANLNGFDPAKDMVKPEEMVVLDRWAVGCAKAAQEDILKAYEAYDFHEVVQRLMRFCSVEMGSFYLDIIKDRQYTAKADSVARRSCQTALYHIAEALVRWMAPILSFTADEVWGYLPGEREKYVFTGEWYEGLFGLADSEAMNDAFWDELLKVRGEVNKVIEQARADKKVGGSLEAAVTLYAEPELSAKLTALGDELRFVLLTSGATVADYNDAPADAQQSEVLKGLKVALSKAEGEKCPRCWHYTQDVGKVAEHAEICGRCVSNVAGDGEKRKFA
Chain of Alanine--tRNA ligase (Escherichia coli) (P00957 whole entry, looked up): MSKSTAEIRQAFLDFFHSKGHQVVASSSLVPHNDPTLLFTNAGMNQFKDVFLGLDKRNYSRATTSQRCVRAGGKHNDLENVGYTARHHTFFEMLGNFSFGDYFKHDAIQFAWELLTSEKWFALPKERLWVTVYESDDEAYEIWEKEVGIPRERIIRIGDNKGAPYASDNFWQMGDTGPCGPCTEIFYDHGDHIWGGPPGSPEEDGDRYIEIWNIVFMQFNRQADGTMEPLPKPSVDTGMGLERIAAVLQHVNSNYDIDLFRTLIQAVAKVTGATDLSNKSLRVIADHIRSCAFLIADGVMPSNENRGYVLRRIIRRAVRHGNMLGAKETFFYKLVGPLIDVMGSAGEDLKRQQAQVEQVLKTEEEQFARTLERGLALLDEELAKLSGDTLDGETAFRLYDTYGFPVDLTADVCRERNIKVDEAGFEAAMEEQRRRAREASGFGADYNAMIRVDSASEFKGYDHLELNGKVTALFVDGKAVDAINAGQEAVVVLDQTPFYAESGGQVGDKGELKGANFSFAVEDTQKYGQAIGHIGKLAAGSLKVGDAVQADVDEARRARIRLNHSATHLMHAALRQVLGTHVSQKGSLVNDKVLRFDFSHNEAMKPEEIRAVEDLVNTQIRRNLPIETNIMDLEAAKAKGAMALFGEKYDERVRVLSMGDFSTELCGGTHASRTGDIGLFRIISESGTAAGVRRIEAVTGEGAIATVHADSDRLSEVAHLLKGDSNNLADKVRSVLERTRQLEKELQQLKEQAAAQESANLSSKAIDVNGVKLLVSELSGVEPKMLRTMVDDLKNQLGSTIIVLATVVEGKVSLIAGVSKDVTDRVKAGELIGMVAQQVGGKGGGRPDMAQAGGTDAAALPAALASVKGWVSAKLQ

The term IC50 denotes the midpoint of a concentration-inhibition curve. Read a low IC50 as greater potency in that assay. For the molecule `N[C@@H](Cc1cnc[nH]1)C(=O)NS(=O)(=O)OC[C@H]1O[C@@H](c2nc(-c3ccccc3)cs2)[C@H](O)[C@@H]1O` [[(S)-2-Amino-3-(3H-imidazol-4-yl)-propionyl]-sulfamic acid (2R,3S,4R,5R)-3,4-dihydroxy-5-(4-phenyl-thiazol-2-yl)-tetrahydro-furan-2-ylmethyl ester], the IC50 in assay [1], in assay [2] and in assay [3] was above 100000 nM each time.

`CCC(C)[C@H](N)C(=O)NS(=O)(=O)OC[C@H]1O[C@@H](c2nc(-c3cccc(OC)c3)cs2)[C@H](O)[C@@H]1O` (stereo partly drawn) [((S)-2-Amino-3-methyl-pentanoyl)-sulfamic acid (2R,3S,4R,5R)-3,4-dihydroxy-5-[4-(3-methoxy-phenyl)-thiazol-2-yl]-tetrahydro-furan-2-ylmethyl ester]: the IC50 in assay [1] amounted to 15 nM.

On to `CC(C)[C@H](N)C(=O)NS(=O)(=O)OC[C@H]1O[C@@H](c2nc(-c3ccccc3)cs2)[C@H](O)[C@@H]1O` [((S)-2-Amino-3-methyl-butyryl)-sulfamic acid (2R,3S,4R,5R)-3,4-dihydroxy-5-(4-phenyl-thiazol-2-yl)-tetrahydro-furan-2-ylmethyl ester], for which the IC50 in assay [1] was 15000 nM; in assay [2] it was above 100000 nM; in assay [3] it was 14000 nM.

Regarding `CCC(C)[C@H](N)C(=O)NS(=O)(=O)OC[C@H]1O[C@@H](c2nc(CCc3ccccc3)cs2)[C@H](O)[C@@H]1O` (stereo partly drawn) [((S)-2-Amino-3-methyl-pentanoyl)-sulfamic acid (2R,3S,4R,5R)-3,4-dihydroxy-5-(4-phenethyl-thiazol-2-yl)-tetrahydro-furan-2-ylmethyl ester], in assay [1], it took 30 nM to reach half-maximal inhibition (IC50).

On to `C[C@H](N)C(=O)NS(=O)(=O)OC[C@H]1O[C@@H](c2nc(-c3ccccc3)cs2)[C@H](O)[C@@H]1O` [((S)-2-Amino-propionyl)-sulfamic acid (2R,3S,4R,5R)-3,4-dihydroxy-5-(4-phenyl-thiazol-2-yl)-tetrahydro-furan-2-ylmethyl ester], for which the figures for the IC50 in assay [1], in assay [2] and in assay [3] were 100000 nM, above 100000 nM and above 100000 nM, respectively.

In assay [3], `CC(C)C[C@H](N)C(=O)NS(=O)(=O)OC[C@H]1O[C@@H](c2nc(CCc3ccccc3)cs2)[C@H](O)[C@@H]1O` [((S)-2-Amino-4-methyl-pentanoyl)-sulfamic acid (2R,3S,4R,5R)-3,4-dihydroxy-5-(4-phenethyl-thiazol-2-yl)-tetrahydro-furan-2-ylmethyl ester] gave an IC50 below 2 nM.

In assay [1], `CCC(C)[C@H](N)C(=O)NS(=O)(=O)OC[C@H]1O[C@@H](c2nc(-c3ccc(Oc4ccccc4)cc3)cs2)[C@H](O)[C@@H]1O` (stereo partly drawn) [((S)-2-Amino-3-methyl-pentanoyl)-sulfamic acid (2R,3S,4R,5R)-3,4-dihydroxy-5-[4-(4-phenoxy-phenyl)-thiazol-2-yl]-tetrahydro-furan-2-ylmethyl ester] gave an IC50 of 45 nM.

`CCC(C)[C@H](N)C(=O)NS(=O)(=O)OC[C@H]1O[C@@H](c2nc(-c3ccccc3OC)cs2)[C@H](O)[C@@H]1O` (stereo partly drawn) [((S)-2-Amino-3-methyl-pentanoyl)-sulfamic acid (2R,3S,4R,5R)-3,4-dihydroxy-5-[4-(2-methoxy-phenyl)-thiazol-2-yl]-tetrahydro-furan-2-ylmethyl ester] registered an IC50 in assay [1] of 30 nM.

On to `N[C@@H](Cc1ccccc1)C(=O)NS(=O)(=O)OC[C@H]1O[C@@H](c2nc(-c3ccccc3)cs2)[C@H](O)[C@@H]1O` [((S)-2-Amino-3-phenyl-propionyl)-sulfamic acid (2R,3S,4R,5R)-3,4-dihydroxy-5-(4-phenyl-thiazol-2-yl)-tetrahydro-furan-2-ylmethyl ester], for which the IC50 in assay [1], in assay [2] and in assay [3] was above 100000 nM throughout.

With `CCC(C)[C@H](N)C(=O)NS(=O)(=O)OC[C@H]1O[C@@H](c2nc(CCc3ccc(Oc4ccccc4)cc3)cs2)[C@H](O)[C@@H]1O` (stereo partly drawn) [((S)-2-Amino-3-methyl-pentanoyl)-sulfamic acid (2R,3S,4R,5R)-3,4-dihydroxy-5-{4-[2-(4-phenoxy-phenyl)-ethyl]-thiazol-2-yl}-tetrahydro-furan-2-ylmethyl ester], half-maximal inhibition in assay [1] (IC50) was put at 110 nM.

Take `CC(C)C[C@H](N)C(=O)NS(=O)(=O)OC[C@H]1O[C@@H](c2nc(-c3ccc(Oc4ccccc4)cc3)cs2)[C@H](O)[C@@H]1O` [((S)-2-Amino-4-methyl-pentanoyl)-sulfamic acid (2R,3S,4R,5R)-3,4-dihydroxy-5-[4-(4-phenoxy-phenyl)-thiazol-2-yl]-tetrahydro-furan-2-ylmethyl ester]: in assay [3], the IC50 turned out to be 1.6 nM.

On to `CCC(C)[C@H](N)C(=O)NS(=O)(=O)OC[C@H]1O[C@@H](c2nc(-c3ccc4cc(OC)ccc4c3)cs2)[C@H](O)[C@@H]1O` (stereo partly drawn) [((S)-2-Amino-3-methyl-pentanoyl)-sulfamic acid (2R,3S,4R,5R)-3,4-dihydroxy-5-[4-(6-methoxy-naphthalen-2-yl)-thiazol-2-yl]-tetrahydro-furan-2-ylmethyl ester], for which inhibition in assay [1] was half-maximal at 20 nM (IC50).

As to `CCC(C)[C@H](N)C(=O)NS(=O)(=O)OC[C@H]1O[C@@H](c2nc(-c3ccc(OC)cc3)cs2)[C@H](O)[C@@H]1O` (stereo partly drawn) [((S)-2-Amino-3-methyl-pentanoyl)-sulfamic acid (2R,3S,4R,5R)-3,4-dihydroxy-5-[4-(4-methoxy-phenyl)-thiazol-2-yl]-tetrahydro-furan-2-ylmethyl ester], in assay [1], the IC50 came to 100 nM.

In turn, `CC(C)C[C@H](N)C(=O)NS(=O)(=O)OC[C@H]1O[C@@H](c2nc(CCc3ccc(Oc4ccccc4)cc3)cs2)[C@H](O)[C@@H]1O` [((S)-2-Amino-4-methyl-pentanoyl)-sulfamic acid (2R,3S,4R,5R)-3,4-dihydroxy-5-{4-[2-(4-phenoxy-phenyl)-ethyl]-thiazol-2-yl}-tetrahydro-furan-2-ylmethyl ester] displayed an IC50 in assay [3] of 6 nM.

As for `CC[C@H](C)[C@H](N)C(=O)NS(=O)(=O)OC[C@H]1O[C@@H](c2nc(-c3ccccc3)cs2)[C@H](O)[C@@H]1O` [((2S,3S)-2-Amino-3-methyl-pentanoyl)-sulfamic acid (2R,3S,4R,5R)-3,4-dihydroxy-5-(4-phenyl-thiazol-2-yl)-tetrahydro-furan-2-ylmethyl ester], the results for the IC50 in assay [1] and in assay [2] were 100 nM and above 100000 nM, respectively.
